What was measured:
[1] = test system: neuroendocrine tumor (NET); assay: Progression-free survival of PPQ-negative subjects after PRRT or PRRT plus chemotherapy; type: in vivo, human; settings: PPQ predicted non responders; standard 4 cycle PRRT
Text: Clinical outcomes of patients that were identified by the PPQ to be a predicted non-responder to PRRT therapy were further analyzed. […] Thus, the PPQ can be used to identify patients that require additional agents (e.g. immune-related treatments or chemotherapy) to be used with PRRT and thereby optimize outcomes.

[2] = test system: midgut NETs; settings: midgut NETs progressive on standard octreotide LAR treatment; cited from earlier work

C[C@@H](O)[C@H](NC(=O)[C@@H]1CSSC[C@H](NC(=O)[C@@H](Cc2ccccc2)NC(=O)CN2CCN(CC(=O)[O-])CCN(CC(=O)[O-])CCN(CC(=O)[O-])CC2)C(=O)N[C@@H](Cc2ccc(O)cc2)C(=O)N[C@H](Cc2c[nH]c3ccccc23)C(=O)N[C@@H](CCCCN)C(=O)N[C@@H]([C@@H](C)O)C(=O)N1)C(=O)O.[177Lu+3] [Lutathera, ^177Lu-DOTA-Tyr^3-Thr^8-octreotide]
median PFS [1]: 9 months | efficacy versus high-dose octreotide [2]: more effective than high-dose octreotide somatostatin analogs

Source: US11744907B2, “Predicting peptide receptor radiotherapy using a gene expression assay” (Liquid Biopsy Research LLC, priority 2017, dated 2023)
